Test results: ChEMBL document CHEMBL4402557, “Nidufexor (LMB763), a Novel FXR Modulator for the Treatment of Nonalcoholic Steatohepatitis” (J Med Chem, 2020)
Active and inactive are the calls of the source. No cut-off for these calls is given here.

Legend:
[1] = species on record: Mus musculus; assay: Anti Steato-hepatitic activity in C57BL/6J mouse STAM model assessed as change in OSTb gene level in liver; type: functional, organism-based
[2] = Lipophilicity, logD of compound at pH 6.8; type: physicochemical; settings: buffer
[3] = molecular target: T1, G-protein coupled bile acid receptor 1 (Homo sapiens, UniProt Q8TDU6); assay: Agonist activity at human GPBAR1 expressed in Jurkat cells assessed as increase in intracellular cAMP level incubated for 1 hr by fluorescence based assay; type: functional, cell-based
T1 sequence (Q8TDU6 whole entry): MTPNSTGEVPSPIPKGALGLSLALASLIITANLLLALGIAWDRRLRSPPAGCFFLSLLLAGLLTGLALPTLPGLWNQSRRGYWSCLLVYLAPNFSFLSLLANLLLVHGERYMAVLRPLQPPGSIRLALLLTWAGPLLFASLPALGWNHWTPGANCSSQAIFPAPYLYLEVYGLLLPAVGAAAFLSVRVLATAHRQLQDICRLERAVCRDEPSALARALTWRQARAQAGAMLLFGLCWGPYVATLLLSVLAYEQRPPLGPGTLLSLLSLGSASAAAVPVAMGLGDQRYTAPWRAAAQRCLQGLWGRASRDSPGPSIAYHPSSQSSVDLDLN

[4] = species on record: Mus musculus; assay: Anti Steato-hepatitic activity in C57BL/6J mouse STAM model assessed as change in Nr0b2 gene level in liver; type: functional, organism-based
[5] = Oral bioavailability in Wistar rat at 10 mg/kg in presence of 0.5% CMC/0.5% Tween 80; type: ADME, organism-based; settings: in vivo
[6] = Oral bioavailability in Wistar rat at 100 mg/kg; type: ADME, organism-based; settings: in vivo
[7] = molecular target: T2, Glucocorticoid receptor (Homo sapiens, UniProt P04150); assay: Agonist activity at Glucocorticoid receptor (unknown origin) incubated for 2 hrs by TR-FRET assay
T2 sequence (P04150 whole entry): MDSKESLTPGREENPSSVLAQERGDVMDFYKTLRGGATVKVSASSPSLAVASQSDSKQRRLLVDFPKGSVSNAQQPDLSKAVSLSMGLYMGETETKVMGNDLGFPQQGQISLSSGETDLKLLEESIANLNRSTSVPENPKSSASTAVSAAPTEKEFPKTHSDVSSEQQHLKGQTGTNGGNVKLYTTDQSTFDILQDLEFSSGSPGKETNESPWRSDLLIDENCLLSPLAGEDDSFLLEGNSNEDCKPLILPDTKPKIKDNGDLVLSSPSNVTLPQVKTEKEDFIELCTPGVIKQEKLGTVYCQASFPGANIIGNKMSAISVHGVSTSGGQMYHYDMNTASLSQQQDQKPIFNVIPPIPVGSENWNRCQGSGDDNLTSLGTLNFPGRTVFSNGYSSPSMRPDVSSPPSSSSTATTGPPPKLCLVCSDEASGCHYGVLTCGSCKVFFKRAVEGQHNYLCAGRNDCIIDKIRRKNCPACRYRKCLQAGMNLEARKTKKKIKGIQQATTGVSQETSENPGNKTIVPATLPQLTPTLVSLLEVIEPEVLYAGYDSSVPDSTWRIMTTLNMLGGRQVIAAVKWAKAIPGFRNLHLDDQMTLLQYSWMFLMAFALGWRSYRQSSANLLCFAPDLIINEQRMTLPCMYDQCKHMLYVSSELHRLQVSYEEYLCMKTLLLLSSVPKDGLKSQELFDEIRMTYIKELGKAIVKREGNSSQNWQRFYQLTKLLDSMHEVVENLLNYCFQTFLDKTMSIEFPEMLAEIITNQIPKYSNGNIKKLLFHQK

[8] = molecular target: T3, Estrogen receptor (Homo sapiens, UniProt P03372); assay: Agonist activity at ERalpha (unknown origin) incubated for 2 hrs by TR-FRET assay
T3 sequence (P03372 whole entry): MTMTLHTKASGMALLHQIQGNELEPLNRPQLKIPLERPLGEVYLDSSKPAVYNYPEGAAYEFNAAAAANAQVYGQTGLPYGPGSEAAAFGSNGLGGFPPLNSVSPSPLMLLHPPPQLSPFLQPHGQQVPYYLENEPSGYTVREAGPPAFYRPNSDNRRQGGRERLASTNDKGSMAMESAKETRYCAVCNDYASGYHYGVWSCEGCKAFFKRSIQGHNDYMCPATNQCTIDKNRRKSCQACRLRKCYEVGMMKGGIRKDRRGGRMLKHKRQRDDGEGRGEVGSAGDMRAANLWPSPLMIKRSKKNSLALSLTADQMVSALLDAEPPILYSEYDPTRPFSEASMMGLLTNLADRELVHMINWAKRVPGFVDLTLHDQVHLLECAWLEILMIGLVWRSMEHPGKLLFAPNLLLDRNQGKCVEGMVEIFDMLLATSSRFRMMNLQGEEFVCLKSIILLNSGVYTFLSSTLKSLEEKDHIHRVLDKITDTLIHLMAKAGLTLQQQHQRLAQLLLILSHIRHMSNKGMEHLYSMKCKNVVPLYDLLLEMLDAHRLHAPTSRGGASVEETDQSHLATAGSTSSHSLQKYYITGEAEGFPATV

[9] = Clearance in Wistar rat at 3 mg/kg, iv; type: ADME, organism-based; settings: in vivo
[10] = AUC in Wistar rat liver at 10 mg/kg, po; type: ADME, organism-based
[11] = Half life in dog at 0.5 mg/kg, iv; type: ADME, organism-based, Canis lupus familiaris; settings: in vivo
[12] = molecular target: T4, Nuclear receptor subfamily 1 group I member 2 (Homo sapiens, UniProt O75469); assay: Agonist activity at PXR (unknown origin) incubated for 2 hrs by TR-FRET assay
T4 sequence (O75469 whole entry): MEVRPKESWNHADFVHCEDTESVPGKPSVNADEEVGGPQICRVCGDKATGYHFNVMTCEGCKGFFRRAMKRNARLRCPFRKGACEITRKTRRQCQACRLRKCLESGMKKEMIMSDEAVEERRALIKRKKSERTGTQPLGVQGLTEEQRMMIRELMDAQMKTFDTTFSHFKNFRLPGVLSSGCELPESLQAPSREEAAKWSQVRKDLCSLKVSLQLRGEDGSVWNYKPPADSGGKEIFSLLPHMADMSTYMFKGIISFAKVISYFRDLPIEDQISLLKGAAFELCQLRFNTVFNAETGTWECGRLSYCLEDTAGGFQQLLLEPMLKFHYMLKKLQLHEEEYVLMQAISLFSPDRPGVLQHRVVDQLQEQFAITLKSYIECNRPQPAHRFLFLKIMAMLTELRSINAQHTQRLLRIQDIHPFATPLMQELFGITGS

[13] = tested on: Mus musculus; assay: Anti Steato-hepatitic activity in STZ/HFD induced oral dosed C57BL/6J mouse STAM model assessed as reduction in hepatocellular ballooning administered via oral gavage once daily for 3 weeks and measured on 9 week by H and E staining based assay; type: functional, organism-based

logD [2]: 2.7
EC50 [3]: > 80 µM
bioavailability [5]: 10%
bioavailability [6]: 82%
EC50 [7]: > 30 µM
EC50 [8]: > 30 µM
clearance [9]: 7 mL/min/kg
AUC [10]: 36.7 µM·h
half-life [11]: 6.8 h
EC50 [12]: > 30 µM
SMILES: Cn1nc(C(=O)N(Cc2ccccc2)Cc2ccc(C(=O)O)cc2)c2c1-c1cc(Cl)ccc1OC2 [NIDUFEXOR]
Activity [1]: Active
Activity [4]: Active
Activity [13]: Dose-dependent effect
